From ChEMBL document CHEMBL5352388 (Eur J Med Chem, 2022)
Calls of active or inactive are those of the source. No cut-off for these calls is given here.

Assays:
HeLa = assay: Antiproliferative activity against human HeLa cells assessed as inhibition of cell growth incubated for 72 hrs by CCK-8 assay; assay type: functional, cell-based
[1] = Half life in human liver microsomes measured upto 60 mins in presence of NADPH by LC/MS/MS analysis; assay type: ADME, Microsome
[2] = Intrinsic clearance in human liver microsomes measured upto 60 mins in presence of NADPH by LC/MS/MS analysis; assay type: ADME, Microsome; details: read-out: CLH
[3] = Metabolic stability in human liver microsomes assessed as compound remaining measured upto 60 mins in presence of NADPH by LC/MS/MS analysis; assay type: ADME, Microsome; details: read-out: Stability
[4] = Metabolic stability in human liver microsomes assessed as compound remaining measured upto 60 mins by LC/MS/MS analysis; assay type: ADME, Microsome; details: read-out: Stability
CYP2C9 = CYP2C9 (Homo sapiens, UniProt P11712); assay: Inhibition of CYP2C9 (unknown origin) at 10 uM incubated for 20 mins in presence of NADPH by LC/MS/MS analysis relative to control; assay type: ADME
CYP2C19 = CYP2C19 (Homo sapiens, UniProt P33261); assay: Inhibition of CYP2C19 (unknown origin) at 10 uM incubated for 20 mins in presence of NADPH by LC/MS/MS analysis relative to control; assay type: ADME
CYP2D6 = CYP2D6 (Homo sapiens, UniProt P10635); assay: Inhibition of CYP2D6 (unknown origin) at 10 uM incubated for 20 mins in presence of NADPH by LC/MS/MS analysis relative to control; assay type: ADME
[5] = target: Voltage-gated inwardly rectifying potassium channel KCNH2 (Homo sapiens, UniProt Q12809); assay: Inhibition of human ERG stably expressed in CHO cells by patch clamp assay; assay type: toxicity, cell-based
[6] = Cmax in Sprague-Dawley rat at 10 mg/kg,po by LC-MS/MS analysis; assay type: ADME, organism-based; parameters: dose 10 mg/kg, route po; details: in vivo
[7] = Half life in Sprague-Dawley rat at 10 mg/kg,po by LC-MS/MS analysis; assay type: ADME, organism-based; details: in vivo
[8] = AUC (0-t) in Sprague-Dawley rat at 10 mg/kg,po by LC-MS/MS analysis; assay type: ADME, organism-based; parameters: dose 10 mg/kg, route po; details: in vivo
[9] = AUC (0-infinity) in Sprague-Dawley rat at 10 mg/kg,po by LC-MS/MS analysis; assay type: ADME, organism-based; parameters: dose 10 mg/kg, route po; details: in vivo
[10] = Half life in Sprague-Dawley rat at 3 mg/kg,iv by LC-MS/MS analysis; assay type: ADME, organism-based; details: in vivo
[11] = Clearance in Sprague-Dawley rat at 3 mg/kg,iv by LC-MS/MS analysis; assay type: ADME, organism-based; details: in vivo
[12] = AUC (0-infinity) in Sprague-Dawley rat at 3 mg/kg,iv by LC-MS/MS analysis; assay type: ADME, organism-based; parameters: dose 3 mg/kg, route iv; details: in vivo
A549 [13] = assay: Inhibition of colony formation in human A549 cells at 2 uM; assay type: functional, cell-based
A549 [14] = assay: Antiproliferative activity against human A549 cells assessed as reduction of Edu positive cells at 2 uM incubated for 48 hrs by EdU incorporation based laser scanning microscopic analysis; assay type: functional, cell-based
[15] = target: T1, Lysine-specific histone demethylase 1A (Homo sapiens, UniProt O60341); assay: Reversible inhibition of LSD-1 (unknown origin) by jump dilution assay
[16] = target: T1, Lysine-specific histone demethylase 1A; assay: Inhibition of LSD1 (unknown origin) assessed as inhibition constant using H3K4me2 as substrate by Lineweaver-Burk plot analysis
[17] = target: T1, Lysine-specific histone demethylase 1A; assay: Inhibition of LSD1 in human A549 cells assessed as increase in H3K4me2 protein level at 1 to 4 uM incubated for 72 hrs by Western blotting assay; assay type: cell-based; details: dose 1-4 µM
A549 [18] = assay: Induction of apoptosis in human A549 cells assessed as upregulation of Bax at 1 to 4 uM incubated for 72 hrs by Western blotting assay; assay type: functional, cell-based; details: dose 1-4 µM
A549 [19] = assay: Induction of apoptosis in human A549 cells assessed as downregulation of BCL-2 at 1 to 4 uM incubated for 72 hrs by Western blotting assay; assay type: functional, cell-based; details: dose 1-4 µM
A549 [20] = assay: Antitumor activity against human A549 cells xenografted in BALB/c mouse assessed as reduction in tumor growth at 10 mg/kg,ip administrated for 15 days; assay type: functional, organism-based; details: time 15.0 day
A549 [21] = assay: Antitumor activity against human A549 cells xenografted in BALB/c mouse assessed as reduction in tumor growth at 20 mg/kg,ip administrated for 15 days; assay type: functional, organism-based; details: time 15.0 day
[22] = Toxicity in BALB/c mouse xenografted with human A549 cells assessed as change in body weight at 20 mg/kg,ip administrated for 15 days; assay type: organism-based; details: in vivo, 360 h, time 15 day
A549 [23] = assay: Antitumor activity against human A549 cells xenografted in BALB/c mouse assessed as reduction in KI67 positive cells at 10 mg/kg,ip administrated for 15 days; assay type: functional, organism-based; details: time 15.0 day
A549 [24] = assay: Antitumor activity against human A549 cells xenografted in BALB/c mouse assessed as reduction in KI67 positive cells at 20 mg/kg,ip administrated for 15 days; assay type: functional, organism-based; details: time 15.0 day
A549 [25] = assay: Antitumor activity against human A549 cells xenografted in BALB/c mouse assessed as appearance of pyknosis at 20 mg/kg,ip administrated for 15 days; assay type: functional, organism-based; details: time 15.0 day
A549 [26] = assay: Antitumor activity against human A549 cells xenografted in BALB/c mouse assessed as chromatin condensation at 10 mg/kg,ip administrated for 15 days; assay type: functional, organism-based; details: time 15.0 day
A549 [27] = assay: Antitumor activity against human A549 cells xenografted in BALB/c mouse assessed as appearance of pyknosis at 10 mg/kg,ip administrated for 15 days; assay type: functional, organism-based; details: time 15.0 day
A549 [28] = assay: Induction of apoptosis in human A549 cells assessed as downregulation of mTOR phosphorylation incubated for 72 hrs by Western blotting assay; assay type: functional, cell-based
[29] = target: T1, Lysine-specific histone demethylase 1A
Description: Inhibition of recombinant human LSD1 using fluorometric substrate by HRP based fluorimeter microplate reader assay

A549 [30] = assay: cells; details: Homo sapiens, A549, 72 h
Description: Antiproliferative activity against human A549 cells assessed as inhibition of cell growth incubated for 72 hrs by CCK-8 assay

MCF7 = assay: cells; details: Homo sapiens, MCF7, 72 h
Description: Antiproliferative activity against human MCF7 cells assessed as inhibition of cell growth incubated for 72 hrs by CCK-8 assay

Sequence of CYP2C9 (P11712 whole entry): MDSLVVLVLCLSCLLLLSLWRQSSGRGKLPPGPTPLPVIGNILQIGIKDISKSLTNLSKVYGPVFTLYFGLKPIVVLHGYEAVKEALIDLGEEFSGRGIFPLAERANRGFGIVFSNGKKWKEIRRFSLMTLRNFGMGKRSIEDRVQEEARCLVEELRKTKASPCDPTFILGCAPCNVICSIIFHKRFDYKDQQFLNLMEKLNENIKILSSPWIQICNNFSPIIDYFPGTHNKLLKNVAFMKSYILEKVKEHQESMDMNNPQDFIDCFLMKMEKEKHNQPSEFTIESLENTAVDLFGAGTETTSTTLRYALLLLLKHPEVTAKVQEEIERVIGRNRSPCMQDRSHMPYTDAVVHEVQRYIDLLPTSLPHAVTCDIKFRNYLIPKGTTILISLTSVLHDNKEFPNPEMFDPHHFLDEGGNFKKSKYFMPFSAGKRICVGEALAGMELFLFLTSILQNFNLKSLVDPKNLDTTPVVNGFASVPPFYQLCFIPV
Sequence of CYP2C19 (P33261 whole entry): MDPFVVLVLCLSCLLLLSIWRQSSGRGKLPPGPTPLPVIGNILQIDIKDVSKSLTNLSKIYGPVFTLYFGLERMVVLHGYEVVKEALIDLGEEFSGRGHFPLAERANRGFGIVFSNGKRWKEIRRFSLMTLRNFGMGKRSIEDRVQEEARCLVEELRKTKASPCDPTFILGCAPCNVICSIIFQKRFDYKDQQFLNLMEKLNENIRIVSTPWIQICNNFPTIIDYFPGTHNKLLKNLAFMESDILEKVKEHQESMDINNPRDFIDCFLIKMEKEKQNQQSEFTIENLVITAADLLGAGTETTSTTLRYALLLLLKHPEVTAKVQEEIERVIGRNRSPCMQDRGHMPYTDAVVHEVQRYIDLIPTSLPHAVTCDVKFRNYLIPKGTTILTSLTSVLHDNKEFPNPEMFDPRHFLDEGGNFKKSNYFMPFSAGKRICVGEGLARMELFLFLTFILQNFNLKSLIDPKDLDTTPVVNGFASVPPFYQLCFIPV
Sequence of Voltage-gated inwardly rectifying potassium channel KCNH2 (Q12809 whole entry): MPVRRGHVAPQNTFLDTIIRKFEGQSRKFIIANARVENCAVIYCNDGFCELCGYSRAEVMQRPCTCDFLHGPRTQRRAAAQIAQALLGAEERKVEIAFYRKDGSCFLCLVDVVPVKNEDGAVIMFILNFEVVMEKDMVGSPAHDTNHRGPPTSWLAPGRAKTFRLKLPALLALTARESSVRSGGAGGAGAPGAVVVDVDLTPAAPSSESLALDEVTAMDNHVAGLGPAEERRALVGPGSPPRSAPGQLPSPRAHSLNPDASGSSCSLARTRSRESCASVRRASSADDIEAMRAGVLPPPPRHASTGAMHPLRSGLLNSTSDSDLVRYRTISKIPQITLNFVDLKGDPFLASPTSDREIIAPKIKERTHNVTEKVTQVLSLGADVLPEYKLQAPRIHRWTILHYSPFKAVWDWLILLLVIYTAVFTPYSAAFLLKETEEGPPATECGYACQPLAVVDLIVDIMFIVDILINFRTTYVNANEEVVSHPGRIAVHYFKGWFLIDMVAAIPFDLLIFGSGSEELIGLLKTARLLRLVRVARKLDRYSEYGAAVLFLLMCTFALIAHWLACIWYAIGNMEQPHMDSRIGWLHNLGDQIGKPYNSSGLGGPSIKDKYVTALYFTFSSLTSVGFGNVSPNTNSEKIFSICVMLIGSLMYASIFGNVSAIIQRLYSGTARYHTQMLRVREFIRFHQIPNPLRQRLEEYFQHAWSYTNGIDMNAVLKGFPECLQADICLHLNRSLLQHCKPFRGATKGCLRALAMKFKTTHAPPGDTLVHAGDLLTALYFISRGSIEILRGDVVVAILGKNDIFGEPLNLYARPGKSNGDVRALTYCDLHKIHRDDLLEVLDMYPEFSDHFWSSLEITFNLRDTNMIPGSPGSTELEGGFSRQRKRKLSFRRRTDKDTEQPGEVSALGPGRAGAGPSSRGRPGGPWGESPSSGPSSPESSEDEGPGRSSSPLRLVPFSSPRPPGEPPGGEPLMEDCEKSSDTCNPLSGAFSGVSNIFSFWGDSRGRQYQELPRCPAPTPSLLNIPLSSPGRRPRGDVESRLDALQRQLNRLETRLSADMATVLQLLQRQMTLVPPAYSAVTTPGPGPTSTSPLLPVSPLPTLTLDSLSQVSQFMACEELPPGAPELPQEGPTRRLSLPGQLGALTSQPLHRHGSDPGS
Sequence of CYP2D6 (P10635 whole entry): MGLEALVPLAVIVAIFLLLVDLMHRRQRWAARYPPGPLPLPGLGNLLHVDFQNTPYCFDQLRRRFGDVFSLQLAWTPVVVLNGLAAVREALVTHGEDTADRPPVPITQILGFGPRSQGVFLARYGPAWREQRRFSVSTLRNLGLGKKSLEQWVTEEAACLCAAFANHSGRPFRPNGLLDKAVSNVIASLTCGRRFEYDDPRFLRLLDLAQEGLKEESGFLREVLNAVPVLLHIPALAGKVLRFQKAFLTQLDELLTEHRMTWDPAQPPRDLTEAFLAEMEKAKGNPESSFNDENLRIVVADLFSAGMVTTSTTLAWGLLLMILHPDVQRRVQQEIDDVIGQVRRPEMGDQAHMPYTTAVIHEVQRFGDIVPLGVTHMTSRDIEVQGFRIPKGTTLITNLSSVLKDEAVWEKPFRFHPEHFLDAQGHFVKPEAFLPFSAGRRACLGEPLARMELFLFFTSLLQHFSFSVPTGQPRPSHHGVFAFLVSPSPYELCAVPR

IC50 (HeLa): 3300 nM
half-life [1]: 2.42 h
microsomal CLint [2]: 9.6 µL/min/mg
remaining at 1 h [3]: 79.2%
remaining at 1 h [4]: 102%
inhibition at 20 min, 10 µM (CYP2C9): 47.7%
inhibition at 20 min, 10 µM (CYP2C19): 17.5%
inhibition at 20 min, 10 µM (CYP2D6): 2.9%
Cmax [6]: 46.5 ng/mL
half-life [7]: 6.27 h
AUC(0-t) [8]: 329 ng·h/mL
AUC(0-inf) [9]: 362 ng·h/mL
half-life [10]: 8.78 h
clearance [11]: 35.5 mL/min/kg
AUC(0-inf) [12]: 1450 ng·h/mL
inhibition [15]: Active
Ki [16]: 155 nM
inhibition [17]: Dose-Dependent Effect
IC50 [29]: 50 nM
IC50 (A549 [30]): 740 nM
IC50 (MCF7): 3400 nM
Structure (SMILES): Cc1ccc(-c2cc3c(cc2-c2ccc(C#N)cc2)c(C(=O)N2CCC(N)CC2)cn3S(=O)(=O)c2ccc(F)cc2)cc1
IC50 [5]: 5110 nM
inhibition (A549 [13]): Active
Activity (A549 [14]): Active
Activity (A549 [18]): Dose-Dependent Effect
Activity (A549 [19]): Dose-Dependent Effect
Activity (A549 [20]): Active
Activity (A549 [21]): Active
Activity [22]: Non-Toxic
Activity (A549 [23]): Active
Activity (A549 [24]): Active
Activity (A549 [25]): Active
Activity (A549 [26]): Active
Activity (A549 [27]): Active
Activity (A549 [28]): Active
